For one experiment, the system named is Candida albicans(KCTC 1940), Aspergillus niger (ATCC 9642) and Saccharomyces cerevisiae. Description: Relative antifungal activity by agar dilution method (vs Miconazole).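 Further: scores 5 to 7 mean a lower fungicidal concentration than Miconazole so higher is more potent.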 Format: cell-based. Conditions: agar dilution method; fungicidal concentration relative to control drug Miconazole (=4). From the text:
Novel compounds represented by the above chemical formula (I), and the relative activities in accordance with the agar dilution method in Sabouraud dextrose agar media, Czapek agar media and Yeast Extract-Peptone-Dextrose agar media for Candida albicans(KCTC 1940), Aspergillus niger (ATCC 9642) and Saccharomyces cerevisiae are described respectively in following Table 1.
On the technique in general: In agar dilution the substance is mixed into plates at graded concentrations.
For `CCCCCCCC1=[N+](Cc2cc(Br)c(OC)c(OC)c2)CCc2cc(OC)c(OC)cc21.[Cl-]` [Compound No. 79, 1-n-heptyl-2-(3-bromo-4,5-dimethoxyphenyl)methyl-3,4-dihydro-6,7-dimethoxyisoquinolinium chloride], the “Relative Activity” value is given as 5.

As for `COc1ccc2c(c1)CC[N+](Cc1ccccc1F)=C2C.[Cl-]` [Compound No. 80, 1-methyl-2-(2-fluorophenyl)methyl-3,4-dihydro-6-methoxyisoquinolinium chloride], the “Relative Activity” value amounted to 6.

Regarding `CCC1=[N+](Cc2ccccc2F)CCc2cc(OC)ccc21.[Cl-]` [Compound No. 81, 1-ethyl-2-(2-fluorophenyl)methyl-3,4-dihydro-6-methoxyisoquinolinium chloride], the “Relative Activity” value is 6. As to `CCCC1=[N+](Cc2ccccc2F)CCc2cc(OC)ccc21.[Cl-]` [Compound No. 82, 1-n-propyl-2-(2-fluorophenyl)methyl-3,4-dihydro-6-methoxyisoquinolinium chloride], the “Relative Activity” value stood at 6.

As to `COc1ccc2c(c1)CC[N+](Cc1ccccc1F)=C2CC(C)C.[Cl-]` [Compound No. 84, 1-(2-methyl)propyl-2-(2-fluorophenyl)methyl-3,4-dihydro-6-methoxyisoquinolinium chloride], the “Relative Activity” value is recorded as 6. On the same count and under the same terms, the figure for `CCCCCC1=[N+](Cc2ccccc2F)CCc2cc(OC)ccc21.[Cl-]` [Compound No. 85, 1-n-pentyl-2-(2-fluorophenyl)methyl-3,4-dihydro-6-methoxyisoquinolinium chloride] is 5; for `CCCCCCC1=[N+](Cc2ccccc2F)CCc2cc(OC)ccc21.[Cl-]` [Compound No. 86, 1-n-hexyl-2-(2-fluorophenyl)methyl-3,4-dihydro-6-methoxyisoquinolinium chloride] it is 5. In the case of `CCCCCCCC1=[N+](Cc2ccccc2F)CCc2cc(OC)ccc21.[Cl-]` [Compound No. 87, 1-n-heptyl-2-(2-fluorophenyl)methyl-3,4-dihydro-6-methoxyisoquinolinium chloride], the “Relative Activity” value amounted to 5.

As for `CCCCCCCCCCCC1=[N+](Cc2ccccc2F)CCc2cc(OC)ccc21.[Cl-]` [Compound No. 88, 1-n-undecyl-2-(2-fluorophenyl)methyl-3,4-dihydro-6-methoxyisoquinolinium chloride], the “Relative Activity” value amounted to 2. Turning to `CCCCCCCCCCCCCCCC1=[N+](Cc2ccccc2F)CCc2cc(OC)ccc21.[Cl-]` [Compound No. 89, 1-n-pentadecyl-2-(2-fluorophenyl)methyl-3,4-dihydro-6-methoxyisoquinolinium chloride], the “Relative Activity” value is on record as 1.

With `COc1ccc2c(c1)CC[N+](Cc1ccccc1F)=C2c1ccccc1F.[Cl-]` [Compound No. 90, 1-(2-fluorophenyl)-2-(2-fluorophenyl)methyl-3,4-dihydro-6-methoxyisoquinolinium chloride], the “Relative Activity” value amounted to 6. Turning to `COc1ccc2c(c1)CC[N+](Cc1ccccc1F)=C2c1ccc(C(C)(C)C)cc1.[Cl-]` [Compound No. 91, 1-(4-t-butylphenyl)-2-(2-fluorophenyl)methyl-3,4-dihydro-6-methoxyisoquinolinium chloride], the “Relative Activity” value worked out at 6.

Take `CC1=[N+](Cc2ccc(C(F)(F)F)cc2)CCc2cc3c(cc21)OCO3.[Cl-]` [Compound No. 107, 1-methyl-2-(4-trifluoromethylphenyl)methyl-3,4-dihydro-6,7-methylenedioxyisoquinolinium chloride]: the “Relative Activity” value stood at 6.

For `CCCCCCCC1=[N+](Cc2ccc(C(F)(F)F)cc2)CCc2cc3c(cc21)OCO3.[Cl-]` [Compound No. 108, 1-n-heptyl-2-(4-trifluoromethylphenyl)methyl-3,4-dihydro-6,7-methylenedioxyisoquinolinium chloride], the “Relative Activity” value came out at 4. The same measure, in the same setting: the figure for `CCCCCCCCCCCCCCCC1=[N+](Cc2ccc(C(F)(F)F)cc2)CCc2cc3c(cc21)OCO3.[Cl-]` [Compound No. 109, 1-n-pentadecyl-2-(4-trifluoromethylphenyl)methyl-3,4-dihydro-6,7-methylenedioxyisoquinolinium chloride] is 1; for `CC(C)(C)c1ccc(C2=[N+](Cc3ccc(C(F)(F)F)cc3)CCc3cc4c(cc32)OCO4)cc1.[Cl-]` [Compound No. 110, 1-(4-t-butylphenyl)-2-(4-trifluoromethylphenyl)methyl-3,4-dihydro-6,7-methylenedioxyisoquinolinium chloride] it is 6. On the same count and under the same terms, the figure for `CCCCCCCC1=[N+](Cc2ccc(F)c(F)c2)CCc2cc3c(cc21)OCO3.[Cl-]` [Compound No. 112, 1-n-heptyl-2-(3,4-difluorophenyl)methyl-3,4-dihydro-6,7-methylenedioxyisoquinolinium chloride] is 4; for `CCCCCCCCCCCCCCCC1=[N+](Cc2ccc(F)c(F)c2)CCc2cc3c(cc21)OCO3.[Cl-]` [Compound No. 113, 1-n-pentadecyl-2-(3,4-difluorophenyl)methyl-3,4-dihydro-6,7-methylenedioxyisoquinolinium chloride] it is 1.

Consider `CC(C)(C)c1ccc(C2=[N+](Cc3ccc(F)c(F)c3)CCc3cc4c(cc32)OCO4)cc1.[Cl-]` [Compound No. 114, 1-(4′-t-butylphenyl)-2-(3,4-difluorophenyl)methyl-3,4-dihydro-6,7-methylenedioxyisoquinolinium chloride], for which the “Relative Activity” value was determined as 6.

Turning to `CCCCCCCCCCCC1=[N+](c2ccc(C(C)(C)C)cc2)CCc2cc(CNC(=O)OCC)c(OC)cc21.[Br-]` [Compound No. 116, ethyl 3,4-dihydro-7-methoxy-6-(4-t-butylphenyl)-1-undecylisoquinolinium-6-ylmethylcabamate bromide], the “Relative Activity” value is reported as 2. Consider `CCCCCCCCCCCC1=[N+](c2ccc(C(F)(F)F)cc2)CCc2cc(CNC(=O)OCC)ccc21.[Br-]` [Compound No. 117, Ethyl 3,4-dihydro-1-undecylisoquinolinium-2-(4-trifluoromethylphenyl)-6-ylmethylcabamate bromide], for which the “Relative Activity” value is 4. With `CCCCCCCCCCCC1=[N+](Cc2ccc(NC(=O)OCC)c(NC(=O)OCC)c2)CCc2cc(OC)c(OC)cc21.[Cl-]` [Compound No. 122, 6,7-dimethoxy-2-(3,4-bis(ethoxy Carbonylamino)phenyl)methyl-3,4-dihydro-1-undecylisoquinolinium chloride], the “Relative Activity” value stood at 2. For the compound `CCCC1=[N+](Cc2ccc(C(C)(C)C)cc2)CCc2cc(OC)c(OC)cc21.[Cl-]` [Compound No. 123, 1-propyl-2-(4-t-butylphenyl)methyl-3,4-dihydro-6,7-dimethoxyisoquinolinium chloride], the “Relative Activity” value came out at 6. On to `COc1cc2c(cc1OC)C(CCc1ccc(C(C)(C)C)cc1)=[N+](Cc1ccccc1F)CC2` [Compound No. 124, 1-(2-(4-t-butylphenyl))ethyl-2-(2-fluorophenyl)methyl-3,4-dihydro-6,7-dimethoxyisoquinolinium chloride], for which the “Relative Activity” value amounted to 2.

Turning to `COc1ccc(C[N+]2=C(CCc3ccc(C(C)(C)C)cc3)c3cc(OC)c(OC)cc3CC2)cc1OC` [Compound No. 125, 1-(2-(4-t-butylphenyl))ethyl-2-(3,4-dimethoxyphenyl)methyl-3,4-dihydro-6,7-dimethoxyisoquinolinium chloride], the “Relative Activity” value is 2. As to `COc1cc2c(cc1OC)C(CCc1ccc(C(C)(C)C)cc1)=[N+](Cc1ccc(C(F)(F)F)cc1)CC2.[Cl-]` [Compound No. 129, 1-(2-(4-t-butylphenyl))ethyl-2-(4-trifluoromethylphenyl)methyl-3,4-dihydro-6,7-dimethoxy isoquinolinium chloride], the “Relative Activity” value is given as 4.

In the case of `COc1cc2c(cc1OC)C(CCc1ccc(C(C)(C)C)cc1)=[N+](Cc1c(F)c(F)c(F)c(F)c1F)CC2.[Cl-]` [Compound No. 130, 1-(2-(4-t-butylphenyl))ethyl-2-(2,3,4,5,6-pentafluorophenyl)methyl-3,4-dihydro-6,7-dimethoxy isoquinolinium chloride], the “Relative Activity” value came to 4. For the compound `COc1cc2c(cc1OC)C(CCc1ccc(C(C)(C)C)cc1)=[N+](Cc1c(F)c(F)c(C(F)(F)F)c(F)c1F)CC2.[Cl-]` [Compound No. 131, 1-(2-(4-t-butylphenyl))ethyl-2-(2,3,5,6-tetrafluoro-4-trifluoromethylphenyl)methyl-3,4-dihydro-6,7-dimethoxy isoquinolinium chloride], the “Relative Activity” value worked out at 4.

On to `COc1cc2c(cc1OC)C(CCc1ccc(C(C)(C)C)cc1)=[N+](Cc1cccc(OC)c1OCc1c(F)cccc1Cl)CC2` [Compound No. 133, 1-(2-(4-t-butylphenyl))ethyl-2-(2-(2-chloro-6-fluorobenzyloxy)-3-methoxyphenyl)methyl-3,4-dihydro-6,7-dimethoxyisoquinolinium chloride], for which the “Relative Activity” value stood at 1. For `COc1cc2c(cc1OC)C(CCc1ccc(C(C)(C)C)cc1)=[N+](Cc1cccc(OC)c1OCc1cccc(OC)c1OC)CC2.[Cl-]` [Compound No. 136, 1-(2-(4-t-butylphenyl))ethyl-2-(2-(2,3-dimethoxybenzyloxy)-3-methoxyphenyl)methyl-3,4-dihydro-6,7-dimethoxy isoquinolinium chloride], the “Relative Activity” value stood at 4.

`CCCCCCCCCCCC1=[N+](Cc2ccc(C(F)(F)F)cc2)CCc2cc(F)ccc21.[Cl-]` [Compound No. 137, 1-undecyl-2-(4-trifluoromethylphenyl)methyl-3,4-dihydro-6-fluoro isoquinolinium chloride]: the “Relative Activity” value stood at 1.

The same experiment, now with this note: antifungal activity relative to Miconazole, agar dilution.
`COc1cc2cc[n+](Cc3c(F)cccc3Cl)cc2cc1OC.[Cl-]` [Compound No. 141, 2-(2-chloro-6-fluorophenyl)methyl-6,7-dimethoxyisoquinolinium chloride]: the “Relative Activity” value is 6.

Values taken from patent publication US20090221829A1 (priority 2005, published 2009).
